# What was measured:
# [1] = molecular target: T1, tbcatB (Trypanosoma brucei, UniProt Q6R7Z5); assay: tbcatB enzyme assay; assay type: biochemical
# T1 construct: made in house
# T1 sequence (Q6R7Z5 23-340): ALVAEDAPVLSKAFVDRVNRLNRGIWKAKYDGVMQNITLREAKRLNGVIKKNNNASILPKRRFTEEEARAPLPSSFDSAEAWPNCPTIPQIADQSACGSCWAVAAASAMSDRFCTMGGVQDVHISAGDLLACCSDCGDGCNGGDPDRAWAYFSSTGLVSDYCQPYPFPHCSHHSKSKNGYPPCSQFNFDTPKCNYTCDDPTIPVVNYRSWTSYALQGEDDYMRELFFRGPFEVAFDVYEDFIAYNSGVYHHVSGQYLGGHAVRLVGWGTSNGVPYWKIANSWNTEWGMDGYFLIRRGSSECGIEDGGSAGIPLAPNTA
# Protocol: Cruzain[27],[28], rhodesain [29], and tbcatB [30] were recombinantly expressed as described previously. TbcatB assays were performed as described previously.[31] Cruzain (2 nM) or rhodesain (3 nM) was incubated with 0.5 to 10 µM inhibitor concentration in 100 mM sodium acetate at pH 5.5, containing 5 mM DTT (buffer A) for 5 min at room temperature. Then buffer A containing Z-Phe-Arg-AMC (Bachem, K M = 1 µM) was added to enzyme inhibitor to give 20 µM substrate concentration in 200 µL, and the increase in fluorescence (excitation at 355 nm and emission at 460 nm) was followed with an automated microtiter plate spectrofluorometer (Molecular Devices, Flex station). Inhibitor stock solutions were prepared at 20 mM in DMSO, and serial dilutions were made in DMSO (0.7% DMSO in assay). Controls were performed using enzyme alone and enzyme with DMSO. IC50 values were determined graphically using inhibitor concentrations in the linear portion of a plot of inhibition versus log[I] (seven concentrations tested with at least two in the linear range).
# Inhibitor dilutions which produce simple exponential progress curves over a wide range of k obs, were used to determine kinetic parameters. The value of k obs, the rate constant for loss of enzyme activity, was determined from an equation for pseudo first order dynamics using Prism 4.0 (GraphPad). When k obs varied linearly with inhibitor concentration, k ass was determined by linear regression analysis. If the variation was hyperbolic, indicating saturation inhibition kinetics, k inact and K i were determined from an equation describing a two-step irreversible inhibitor mechanism [k obs = k inact [I]o/([I]o+Ki* (1+[S]o/K M))] and non-linear regression analysis Prism 4.0.[32] All values were corrected for substrate concentration.
# [2] = tested on: T. cruzi infected J774 macrophages; assay: T. cruzi growth inhibition in infected J774 macrophages (cell survival); assay type: cell-based, Trypanosoma cruzi CA-I/72; conditions: 10 µM inhibitor every 48 h until Day 27, experiment terminated on Day 47, untreated control 6 days
# Protocol: CA-I/72 T. cruzi parasites were isolated from a chronic Chagasic patient, cloned, and maintained as previously described.[33]
# For growth inhibition studies, J774 macrophages cultured in RPMI-1640 medium with 5% heat inactivated fetal calf serum (FCS) were irradiated (9000 rad) to arrest the cell cycle and plated onto 12-well tissue culture plates for 24 h at 37°C. After infection with 10^5 T. cruzi trypomastigotes per well for 2 hours, monolayers were washed with RPMI medium and treated with the inhibitors at 10 µM in RPMI medium (triplicate wells per inhibitor). Inhibitor stocks were made to 10 mM in DMSO and diluted prior to use. All assays include untreated, K11777-treated, and uninfected macrophage controls. Fresh medium with or without inhibitor was replaced every 48 h and inhibitor efficacy was monitored daily. Survival time was defined as the time before the cell monolayer was destroyed by the infection. Under these culture conditions, T. cruzi completed the intracellular cycle in 6 days in untreated controls. […] Macrophages were subsequently cultured in normal medium for up to 40 days to elucidate if the effective inhibitors were trypanocidal (cure host macrophages) or trypanostatic (delay intracellular cycle of the parasite).
# [3] = tested on: T. cruzi infection in BESM cells; assay: Dose-response against T. cruzi infection in BESM cells; assay type: cell-based, Trypanosoma cruzi CA-I/72; conditions: Trypanosoma cruzi, 72 h
# Protocol: Monolayers were then infected with 1000 trypomastigotes/well of CA-I/72 T. cruzi for 2 h at 37°C. […] Cultures were then incubated for 72 h at 37°C in a humidified atmosphere with 5% CO2. Cultures were next fixed in 4% fresh paraformaldehyde in PBS, stained with DAPI, and counted under a fluorescence microscope (400×). Mean numbers of parasites per cell (±SE) were calculated as previously reported (n = 3-4 per concentration). Controls consisted of untreated wells and cultures similarly treated with 10 μM […] and 0.1 μM posaconazole.
# [4] = molecular target: T2, Cathepsin C (Homo sapiens, UniProt P53634); assay: Protease inhibition profiling (Reaction Biology Corp): Cathepsin C; assay type: biochemical
# T2 construct: Reaction Biology Corp (screening service)
# T2 sequence (P53634 25-463, species assumed): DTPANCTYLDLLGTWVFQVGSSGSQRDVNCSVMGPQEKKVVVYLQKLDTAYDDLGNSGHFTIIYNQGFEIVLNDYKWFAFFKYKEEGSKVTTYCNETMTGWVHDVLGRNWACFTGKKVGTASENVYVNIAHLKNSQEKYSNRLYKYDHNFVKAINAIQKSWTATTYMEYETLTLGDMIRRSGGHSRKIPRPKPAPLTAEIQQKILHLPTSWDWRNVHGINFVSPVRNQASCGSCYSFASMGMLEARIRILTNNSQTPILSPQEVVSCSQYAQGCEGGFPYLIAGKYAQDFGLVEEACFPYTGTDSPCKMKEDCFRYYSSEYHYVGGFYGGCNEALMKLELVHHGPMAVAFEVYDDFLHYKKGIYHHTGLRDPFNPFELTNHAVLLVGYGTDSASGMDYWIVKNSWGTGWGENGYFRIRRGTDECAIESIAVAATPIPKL
# [5] = Toxicology study (SRI international); conditions: in vivo; read-out: no observed adverse effect level (NOAEL)
# From the text: In this study, we have identified WRR-483, as an effective agent to treat acute Chagas' disease in a murine model. […] The crystal structure of WRR-483 complexed to cruzain was solved and established the binding mode of the inhibitor to the enzyme. This structure was highlighted by the formation of a salt bridge between the guanidine moiety of the inhibitor and Glu208, but in a different conformation when compared to another structure of cruzain bound to a different arginine-containing inhibitor. […] The no observed adverse effect level (NOAEL) is higher than 100 mg/kg. […] Further studies to understand the precise mechanism of trypanocidal action of WRR-483 and design of analogs with improved bioavailability are currently underway.
# [6] = tested on: Entamoeba histolytica; conditions: human colonic xenograft model; cited from earlier work
# [7] = tested on: EhCP1; conditions: cited from earlier work
structure (smiles),measurement,setting,value
CN1CCN(C(=O)N[C@@H](CCCNC(=N)N)C(=O)N[C@H](/C=C/S(=O)(=O)c2ccccc2)CCc2ccccc2)CC1 [WRR-483],inhibition of tbcatB (in words),[1],weak inhibitors
same,inhibition at 1 µM,"[1]; read-out: tbcatB % inhibition at 1 µM, 1 µM inhibitor",26%
same,T. cruzi infected cell survival,[2],47 days
same,EC50,[3],0.2 µM
same,IC50,[4],0.007 ± 0.0009 µM
same,NOAEL,[5],> 100 mg/kg
same,reduction of amebic invasion,[6],95%
same,inhibition of EhCP1,[7],potent inhibitor
